Data: US9050347B2, “1,2,4-oxadiazole derivatives as drugs modulating the GLP-1 peptide receptor” (VIVIABIOTECH, S.L., priority 2011, dated 2015)

Assays:
[1] = tested on: rat insulinoma cells (INS1E cells); experiment: In vitro insulin secretion assay in INS1E cells; type: cell-based; conditions: for enhancement of glucose-dependent insulin release caused by GLP-1 / direct activation of glucose-activated insulin secretion: rat insulinoma cells; for enhancement of glucose-dependent insulin release caused by GLP-1: GLP-1 10 nM, FIG. 3; for direct activation of glucose-activated insulin secretion: compound alone, FIG. 2
Protocol: The insulin secretion studies were performed in INS1E cells cultured in RPMI 1640 medium (Invitrogen, Switzerland) containing 11 mM glucose. The culture medium was supplemented with 10 mM Hepes (pH 7.3), 10% (v/v) heat-inactivated fetal bovine serum (Brunschwig AG, Switzerland), […] b-mercaptoethanol, 1 mM sodium pyruvate, […] penicillin and […] streptomycin (INS medium). Static secretion studies were performed in culture plates with a diameter of 2.5 cm in which the cells were grown until reaching confluence criteria. The in vitro studies allowed identifying compounds with intrinsic capacity to release insulin (FIG. 2) or which enhance the incretin actions of GLP-1 (FIGS. 3, 4 and 5).

[2] = Parenteral glucose overload assay; type: in vivo, male Wistar rats
Protocol: All the in vivo experiments were performed using male Wistar rats with a weight of 200-450 g. The animals were housed in individual cages in a room with controlled temperature (23° C.) and humidity (50%) with a 12/12 light and dark cycle. The animals had water and food ad libitum except in specific experimental procedures. The animals were handled once a day during the two days before the experimental sessions. All the products were dissolved in a mixture of 5% DMSO, 5% Tween 60/90% saline and intraperitoneally administered. The vehicle was 0.9% sterile saline for the parenteral glucose overload.
The parenteral glucose overload assay was performed in male Wistar rats (Harlan, Barcelona) deprived of food for 18 hours. The animals received an injection of sterile saline containing glucose which was administered at the dose of 2 gr/kg in a volume of 2 ml/kg. The plasma glucose levels were measured by means of glucometers in tail blood using reactive strips of glucose oxidase, at times 0, 5, 10, 15, 30, 45, 60 and 120 minutes after the administration of glucose. The animals received an injection of the drugs under study 15 minutes before the administration of intraperitoneal glucose. After measuring the glucose, an analysis under the curve for compound and dose was performed. This analysis allows evaluating the time intensity of the hyperglycemia. […]

Row | SMILES | enhancement of glucose-dependent insulin release caused by GLP-1 [1] | direct activation of glucose-activated insulin secretion [1] | physiological response (glycemia) in the parenteral glucose overload test ([2]; rats deprived of food for 18 hours, glucose 2 gr/kg, compound 15 minutes before, FIG. 6) | intensity of the hyperglycemia (area under the curve of the glycemia) ([2]; rats, parenteral glucose overload test, several doses, FIG. 7) | allosteric modulation of insulin secretion stimulated by a fixed concentration of GLP-1 ([1]; insulinoma cells, 0.2 nM GLP-1, increasing compound concentration, FIG. 5) | allosteric modulation of insulin release stimulated by increasing doses of GLP-1 ([1]; insulinoma cells, compound at 0.1 nM, FIG. 4)
1 | O=C(CCc1ccccc1)[C@@H]1CCCN(Cc2nc(-c3ccc(C(F)(F)F)cc3)no2)C1 [Compound C1, 3-phenyl-1-[(3R)-1-[[3-[4-(trifluoromethyl)phenyl]-1,2,4-oxadiazol-5-yl]methyl]piperidin-3-yl]propan-1-one] | enhance | direct activators | – | – | – | –
2 | CC(=O)NCC[C@@H]1CCCCN1Cc1nc(-c2ccc(C(F)(F)F)cc2)no1 [Compound C3, N-[2-[(2S)-1-[[3-[4-(trifluoromethyl)phenyl]-1,2,4-oxadiazol-5-yl]methyl]piperidin-2-yl]ethyl]acetamide] | enhance | – | – | – | – | –
3 | NC(=O)C1CCN(Cc2nc(-c3ccc(C(F)(F)F)cc3)no2)CC1 [Compound C4, 1[[3-[4-(trifluoromethyl)phenyl]-1,2,4-oxadiazol-5-yl]methyl]piperidin-4-carboxamide] | enhance | direct activators | – | – | – | –
4 | FC(F)(F)c1ccc(-c2noc(CN3CCCC[C@H]3CCc3ccccn3)n2)cc1 [Compound C5, 5-[[(2S)-2-(2-pyridin-2-ylethyl)piperidin-1-yl]methyl]-3-[4-(trifluoromethyl)phenyl]-1,2,4-oxadiazole] | enhance | direct activators | – | – | – | –
5 | FC(F)(F)c1ccc(-c2noc(CN3CCCC(CN4CCOCC4)C3)n2)cc1 (stereo not shown) [Compound C6, 4-[[1[[3-[4-(trifluoromethyl)phenyl]-1,2,4-oxadiazol-5-yl]methyl]piperidin-3-yl]methyl]morpholine] | enhance | direct activators | improves the physiological response | induces in a dose-dependent manner a reduction of the intensity of the hyperglycemia | enhances in a dose-dependent manner | enhances
